Experimental data taken from US20190350940A1, “PLATINUM COMPOUNDS, COMPOSITIONS, AND USES THEREOF” (priority 2015, published 2019).
Where “and” joins values, the source holds several entries; their conditions need not be identical. Equal entries are not always repeated. Entries after “also recorded” stand apart in the source; their conditions may differ.

Key:
Microsomal stability = format: in vitro ADME; conditions: NADPH-free controls
From the text: Microsomal stability could not be performed because negative controls failed. […] This is consistent with literature reports that microsomes contain protein thiols (Liebler D C, Meredith M J, Guengerich F P. Formation of glutathione conjugates by reactive metabolites of vinylidene chloride in microsomes and isolated hepatocytes. Cancer Res 1985; 45(1):186-93, the contents of which are incorporated herein by reference in their entirety), would react with Compound 8. CYP inhibition was studied to determine whether Compound 8 has an inhibitory effect on microsomes.

[1] = pH stability: pH range screen in Britton Robinson buffer (Impurity 2 formation); format: physicochemical; conditions: 0.1 mg/ml in Britton Robinson buffer, room temperature
Protocol: It has been well established in the literature that the maleimide group is susceptible to a ring-opening product at physiological pH values. In order to determine the stability of Compound 8 at a range of pH values, a stock solution of 10 mg/ml Compound 8 in N,N-dimethylformamide (DMF) was spiked into a series of Britton Robinson buffers with pH set at values of 2, 4, 5, 6, 7.3, and 8 to make a final concentration of 0.1 mg/ml Compound 8. The amount of Impurity 2 (maleimide ring opening impurity) that was produced over the course of 24 hr at room temperature is shown in FIG. 1.

[2] = test system: MIA Paca-2 human pancreatic adenocarcinoma; assay: MIA Paca-2 pancreatic xenograft model; format: in vivo, mouse; conditions: mouse, in vivo, 10 mg/kg
CYP2B6 = CYP2B6 (Homo sapiens, UniProt P20813); assay: CYP inhibition, 2B6; format: in vitro ADME
Chain of CYP2B6 (P20813 whole entry): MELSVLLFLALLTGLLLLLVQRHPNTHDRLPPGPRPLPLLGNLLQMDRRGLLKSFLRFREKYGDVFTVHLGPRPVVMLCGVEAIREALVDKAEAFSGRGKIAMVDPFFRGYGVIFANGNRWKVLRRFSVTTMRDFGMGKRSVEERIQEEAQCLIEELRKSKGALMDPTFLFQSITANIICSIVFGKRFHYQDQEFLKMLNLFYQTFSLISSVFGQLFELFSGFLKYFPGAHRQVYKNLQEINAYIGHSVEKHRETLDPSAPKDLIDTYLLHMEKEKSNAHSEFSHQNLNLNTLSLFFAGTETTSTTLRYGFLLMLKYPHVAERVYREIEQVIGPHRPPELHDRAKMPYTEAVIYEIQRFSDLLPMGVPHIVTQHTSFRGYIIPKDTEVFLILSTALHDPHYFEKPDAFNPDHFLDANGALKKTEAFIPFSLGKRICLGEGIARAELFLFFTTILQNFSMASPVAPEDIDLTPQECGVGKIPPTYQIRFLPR

[3] = Temperature effects: mock manufacturing process; format: physicochemical; conditions: after 24 hrs
Protocol: In order to determine the effect of both temperature and light on the formation of the two main degradation products, mock manufacturing processes and mock clinical dilution studies were conducted. The mock process was simulated by formulating and holding the Compound 8 drug product at room temperature or under cold conditions (e.g. ice bath) for discreet amounts of time that would simulate the large scale manufacturing process. Once the samples went through the mock manufacturing process, they were stored at −20° C., as a frozen solution, and then thawed as they would be in the clinic prior to administration. For the mock clinical dilution study, each solution was diluted in saline, at the lowest dilution factor expected in the clinic. Then the diluted formulations were stored in syringes at room temperature and then assayed for potency and total impurities (from both procedures) at the end of the day.
For the mock manufacturing process, the room temperature samples were formulated and stored at room temperature for a total of 8 hrs and then refrigerated overnight. In contrast, the cold samples were formulated on ice, stored in the 2-8° C. for a total of 8 hrs, and at the end of the day frozen to −20° C.

[4] = test system: A2780 human ovarian cancer; assay: A2780 ovarian xenograft model; format: in vivo, mouse; conditions: mouse, in vivo, 20 mg/kg
Protocol: The effect of Compound 8 on tumor growth inhibition (TGI) was evaluated in the A2780 human ovarian cancer nude mouse (female Crl:NU(NCr)-Foxn1^nu) xenograft model.

male rats = assay: Single dose intravenous dose range-finding toxicity study in male rats (Compound 8-TX-001); format: in vivo; conditions: rat
Protocol: (§1) This study (Compound 8-TX-001) was designed as a dose range finding study to support the dose selection for the repeat-dose IV toxicity GLP study in rats (Compound 8-TX-007).
(§2) The test article, Compound 8, was formulated prior to dosing as a solution in 5 mM citrate buffered saline (0.9% sodium chloride), pH about 4-4.5, at nominal concentrations of 2.7, 1.4, 1.9, and 2.3 mg/mL. Compound 8 was administered via IV injection to groups of 3 animals each at doses of 27, 14, 19, and 23 mg/kg. Dose formulations were all within the acceptance criteria (±10% of target concentration) ranging from 98.8 to 106.2 percent of target concentration. Assessment of toxicity was based on mortality, clinical observations, body weight, and food consumption, and clinical and anatomic pathology.

[5] = as above; format: in vivo; conditions: male, rat, in vivo, iv, single IV dose, male rats, N=3 per group; read-out: MTD and STD10
Protocol: as §1, §2

[6] = pH stability: buffering capacity (5 mM versus 100 mM citrate); format: physicochemical; conditions: 5 mM versus 100 mM citrate saline pH about 4; impurity profile over 10 hr
Protocol: In order to assess the effect of the buffering capacity, formulations were made with 5 mM and 100 mM citrate saline pH about 4. Two formulations were made in 100 mM citrate, one at 0.1 mg/ml and the other at 1 mg/ml. A third formulation of 5 mM citrate at 1 mg/ml was made for comparison to determine whether increasing the buffering capacity improved the stability of the formulation.

[7] = pH stability: acidifying agents versus citrate buffered saline; format: physicochemical; conditions: room temperature
Protocol: In order to determine whether a buffer would be required to maintain stability, two acidifying agents, hydrochloric acid and citric acid, were evaluated with respect to a control formulation in 5 mM citrate buffered saline. All vehicles were brought to a pH of 4 in saline and each formulation was made at 1 mg/ml concentration in each vehicle.

physchem = format: physicochemical; conditions: for solubility at 1 hr: pH 4, aqueous buffer, thermodynamic from solid, Saturated solubility
Protocol: The formulations were prepared by stirring at room temperature for 1 hr. They were protected from light to minimize the formation of the amine product (Impurity 1) during the formulation.
The drug product process begins by preparation of a chilled, solution of 2.5% mannitol and 5 mM citrate buffer (pH about 4-5) solution to which Compound 8 drug substance is added at concentration of 5 mg/mL. […] The bulk solution is filter (0.2 μm) sterilized, aseptically filled into vials, and lyophilized. To minimize Compound 8 degradation, the bulk solution is maintained chilled and protected from light during processing. Lyophilizing Compound 8 as a dry powder was selected as the best means to minimize hydrolysis during storage. Finally, filter sterilization was chosen as the most benign means to sterilize the drug product.

[8] = formulated under cold conditions

SMILES: CC(=O)[O][Pt]([NH2])([NH2])([Cl])([Cl])[O]C(=O)NCCCCCN1C(=O)C=CC1=O [Compound 8]
- Stability in microsome preparations (Microsomal stability): below the limit of quantitation; also recorded: disappeared quickly
- Impurity 2 (maleimide ring opening impurity) formation ([1]; pH 5, 4 hr): not detected
- Impurity 2 (maleimide ring opening impurity) formation ([1]; pH 6, within 1 hr): not detected
- Impurity 2 (maleimide ring opening impurity) formation ([1]; pH values below 4, up to 24 hr): not produced
- Mean maximal BW loss [2]: 3.7%
- Treatment-related adverse effects [2]: No treatment-related adverse effects
- IC50 (CYP2B6): 0.582 µM
- Formation of Impurity 1 ([3]; formulated at room temperature): ~0.8%
- Formation of Impurity2 ([3]; formulated at room temperature): ~0.3%
- Formation of Impurity 1 [3, 8]: < 0.3%
- Formation of Impurity2 [3, 8]: ~0.1%
- Mean maximal BW loss [4]: 7.4%
- Renal function and renal injury (male rats; in vivo, 14 mg/kg): Evidence of reduced renal function and renal injury
- Inflammatory response (leukocytes, neutrophils, monocytes, lymphocytes) (male rats; in vivo, 19 mg/kg): Evidence of an inflammatory response
- Body weight (male rats; in vivo, 23 mg/kg): Decreases in body weight were noted throughout the study
- MTD and STD10 (MTD dose) (male rats; single IV dose, corresponds to 19 mg/kg): 122 mg/m^2 and 120 (MTD*) mg/m^2 and 120 (MTD^1) mg/m^2
- MTD [5]: 19 mg/kg
- Effect of buffering capacity on stability [6]: little effect
- Impurity 2 formation ([7]; 1 mg/ml in 5 mM citrate buffered saline pH 4, 24 hr): inhibits the formation of Impurity 2
- Impurity 2 formation ([7]; 1 mg/ml in saline brought to pH 4 with hydrochloric acid, after 24 hrs): over 2 % by area
- solubility at 1 hr (physchem; overall estimate): ~9 mg/mL
- solubility at 1 hr (physchem; range of five different lots): 8 to 23 mg/mL
- solubility (physchem; pH 4.5, aqueous buffer, Saturated solubility of the drug substance): 16 to 17 mg/mL
